Test results reported in ChEMBL document CHEMBL4419177, “Crystalline forms of a lysyl oxidase-like 2 inhibitor and methods of making” (2018).

How the values were obtained:
Assay type in all cases: physicochemical
[1] = Stability under 3 month accelerated condition (40 degC/75% RH ) assessed as changes in purity or absorption of moisture; details: 2191.5 h
[2] = Solubility of compound ( form 1 ) in 10 uL water at 10 mg; details: buffer
[3] = Solubility of compound ( form 1 ) in 150 uL water at 30 mg; details: buffer
[4] = Stability under 1-year ICH study conditions assessed as chemical or physical changes; details: 8766 h
[5] = Stability of the compound as a solid form exposed to light (max 365 nm) incubated for 24 hrs by HPLC analysis
[6] = Stability of the compound as a solid form exposed to heat at 50 degC incubated for 24 hrs by HPLC analysis
[7] = Stability of the compound as a solid form exposed to heat at 100 degC incubated for 24 hrs by HPLC analysis
[8] = Stability under 2-year ICH study conditions assessed as chemical or physical changes; details: 17532 h

Stability [1] | solubility [2] | solubility [3] | Stability [4] | Stability [5] | Stability [6] | Stability [7] | Stability [8] | Compound
Stable | Soluble | Soluble |  |  |  |  |  | Cl.NCc1cc(Oc2cccc(C(=O)N3C[C@@H](O)[C@H](F)C3)c2)nc(C(F)(F)F)c1
 |  |  | Stable | Stable | Stable | Stable | Stable | CS(=O)(=O)O.NCc1cc(Oc2cccc(C(=O)N3C[C@@H](O)[C@H](F)C3)c2)nc(C(F)(F)F)c1
